Where two headings read alike, the source gives them in different places.
Tests used:
MCF7 cells = experiment: Quantitative nanoLC-MS/MS (TMT) of ADMA-containing peptides, CARM1 KO vs parental; format: cell-based, human; design: Fold change KO/WT: scale not given here
MCF7 CARM1 KO cells = experiment: Quantitative MS of ADMA-containing peptides in MCF7 CARM1 KO cells expressing CARM1 28-608 or CARM1 140-608, and in CARM1 KO; format: cell-based, human
[1] = MCF7, CARM1 KO (KO1-KO3) vs wild type (WT1-WT3)
[2] = CARM1 140-608 vs WT, mean of 3 replicates (log2 scale)
[3] = KO vs WT, mean of 3 replicates (log2 scale)
[4] = ADMA-containing peptide, MCF7, CARM1 knockout (KO1-3) vs wild type (WT1-3), TMT 6-plex experiment #1
[5] = log2 scale ratio, mean of n = 3
[6] = ADMA-containing peptide, CARM1 knockout (KO) vs wild type (WT) MCF7 cells, 6-plex TMT experiment #1, three biological replicates each, sheet "MCF7"
[7] = difference of log2 means, CARM1 140-608 vs WT
[8] = difference of log2 means, KO vs WT
[9] = MCF7, CARM1 knockout vs wild type, n = 3 each
[10] = ratio on log2 scale, mean of 3 replicates
[11] = MCF7, CARM1 KO vs WT, three biological replicates each
[12] = CARM1 140-608 versus WT, mean of three replicates (log2)
[13] = KO versus WT, mean of three replicates (log2)
[14] = MCF7 CARM1 knockout vs wild type, 3 biological replicates each, values are on log2 scale
[15] = CARM1 KO vs wild type MCF7 cells, 3 biological replicates each
[16] = CARM1 140-608 versus WT, difference of mean log2 values
[17] = CARM1 KO versus WT, difference of mean log2 values
[18] = mean, CARM1 140-608 versus WT (log2 scale)
[19] = mean, CARM1 KO versus WT (log2 scale)

MGTPVPrPPQDMGQIGVrTPLGPrVAAPVGPVGPTPTVLPMGAPVPrPR
Fold change KO/WT (MCF7 cells; [1]): -2.587 | CARM1 140-608/WT (MCF7 CARM1 KO cells; [2]): -1.761 | KO/WT (MCF7 CARM1 KO cells; [3]): -2.783

QGQPTPLVIQQPPKPGALIrPPQVTLTQTPMVALrQPHNR
Fold change KO/WT (MCF7 cells; [4]): -2.284 | CARM1 140-608/WT (MCF7 CARM1 KO cells; [5]): -1.328 | KO/WT (MCF7 CARM1 KO cells; [5]): -2.284

AVCSTPLSSSLLGPPGTSALPrLSR
Fold change KO/WT (MCF7 cells; [6]): -3.255 | CARM1 140-608/WT (MCF7 CARM1 KO cells; [7]): -2.222 | KO/WT (MCF7 CARM1 KO cells; [8]): -3.255

GrGFAGVCGFGGPYGETVATGPYrAFR
Fold change KO/WT (MCF7 cells; [9]): -1.965 | CARM1 140-608/WT (MCF7 CARM1 KO cells; [10]): -1.219 | KO/WT (MCF7 CARM1 KO cells; [10]): -1.965

LGHDAYrLGQDPYrLGHDPYR
Fold change KO/WT (MCF7 cells; [4]): -1.784 | CARM1 140-608/WT (MCF7 CARM1 KO cells): -1.958 | KO/WT (MCF7 CARM1 KO cells): -1.784

LGRPIGALArGAIGGR
Fold change KO/WT (MCF7 cells; [11]): 0.325 | CARM1 140-608/WT (MCF7 CARM1 KO cells; [10]): 0.09518 | KO/WT (MCF7 CARM1 KO cells; [10]): 1.211

FAPrGAPHFrFIIAGR
Fold change KO/WT (MCF7 cells; [4]): -0.1223 | CARM1 140-608/WT (MCF7 CARM1 KO cells; [5]): -0.6829 | KO/WT (MCF7 CARM1 KO cells; [5]): -0.5952

SVGQGYSVGQSMrLGLGGNAPVSIPQQSQSVK
Fold change KO/WT (MCF7 cells; [11]): -2.576 | CARM1 140-608/WT (MCF7 CARM1 KO cells; CARM1 140-608 vs WT, mean of 3 replicates, log2): -2.098 | KO/WT (MCF7 CARM1 KO cells; KO vs WT, mean of 3 replicates, log2): -2.576

CAGFLEPTWLAAPPrLArPPrFYEAGEELTGPGAVAAAR
Fold change KO/WT (MCF7 cells; [9]): -3.713 | CARM1 140-608/WT (MCF7 CARM1 KO cells; [10]): -2.314 | KO/WT (MCF7 CARM1 KO cells; [10]): -3.713

APrFPSNIIVTNGAAR
Fold change KO/WT (MCF7 cells; [1]): -1.771 | CARM1 140-608/WT (MCF7 CARM1 KO cells; [12]): -0.8621 | KO/WT (MCF7 CARM1 KO cells; [13]): -1.771

QHLLLrGPPPGSANPPrLVSSYrLK
Fold change KO/WT (MCF7 cells; [14]): -1.782 | CARM1 140-608/WT (MCF7 CARM1 KO cells; [7]): -1.091 | KO/WT (MCF7 CARM1 KO cells; [8]): -1.563

TAAALAPASLTSArMAPALSGANLTSPrVPLSAYER
Fold change KO/WT (MCF7 cells; [4]): -3.829 | CARM1 140-608/WT (MCF7 CARM1 KO cells; [5]): -2.654 | KO/WT (MCF7 CARM1 KO cells; [5]): -3.829

GMQHFPPGPGGPMPGPHGGPGGPVGPrLLGPPPPPR
Fold change KO/WT (MCF7 cells; [6]): -1.283 | CARM1 140-608/WT (MCF7 CARM1 KO cells; [12]): -0.7184 | KO/WT (MCF7 CARM1 KO cells; [13]): -1.425

GIPLDAAAAYYLPrHLAPNPTYPHLYPPYLIrGYPDTAALENR
Fold change KO/WT (MCF7 cells; [6]): -1.386 | CARM1 140-608/WT (MCF7 CARM1 KO cells; [12]): -0.9413 | KO/WT (MCF7 CARM1 KO cells; [13]): -1.386

FIQPrPTLNQPPPPLIrPANSMPPR
Fold change KO/WT (MCF7 cells; [1]): -1.957 | CARM1 140-608/WT (MCF7 CARM1 KO cells; [2]): 0.9302 | KO/WT (MCF7 CARM1 KO cells; [3]): -1.231

HASErGHLR
Fold change KO/WT (MCF7 cells; [15]): 1.422 | CARM1 140-608/WT (MCF7 CARM1 KO cells; [16]): 0.2697 | KO/WT (MCF7 CARM1 KO cells; [17]): 1.422

GSRLPLALPPASQGCSSGGGGGGGGGSSAGGSGNSrPPR
Fold change KO/WT (MCF7 cells; [14]): -0.9721 | CARM1 140-608/WT (MCF7 CARM1 KO cells; [18]): -0.7656 | KO/WT (MCF7 CARM1 KO cells; [19]): -0.9721

SLIPPIPVSPPILAPrLSSGALK
Fold change KO/WT (MCF7 cells; [1]): -3.075 | CARM1 140-608/WT (MCF7 CARM1 KO cells; [2]): -0.7213 | KO/WT (MCF7 CARM1 KO cells; [3]): -2.509

APAGGSLGrALMR
Fold change KO/WT (MCF7 cells; [6]): -0.2145 | CARM1 140-608/WT (MCF7 CARM1 KO cells; [7]): -0.03816 | KO/WT (MCF7 CARM1 KO cells; [8]): 0.3587

QSHTLPFPPPPALPFYPASAYPrHFGPVPPSQGR
Fold change KO/WT (MCF7 cells; [9]): -1.33 | CARM1 140-608/WT (MCF7 CARM1 KO cells; [10]): -0.8989 | KO/WT (MCF7 CARM1 KO cells; [10]): -1.33

GPPGGNrGGFQNrGGGSGGGGNYrGGFNR
Fold change KO/WT (MCF7 cells; [14]): 0.2458 | CARM1 140-608/WT (MCF7 CARM1 KO cells; [18]): 0.1824 | KO/WT (MCF7 CARM1 KO cells; [19]): 0.1614

NDTKDDLGNLNVPDSSLPAENEATGPGFVPPPLAPIrGPLFPVDArGPFLR
Fold change KO/WT (MCF7 cells; [9]): -2.279 | CARM1 140-608/WT (MCF7 CARM1 KO cells; [10]): 0.1654 | KO/WT (MCF7 CARM1 KO cells; [10]): -2.602

QLESLWSDSPAPPGPQAGPPSRPPrYSSSSIPEPFGSR
Fold change KO/WT (MCF7 cells; [1]): -2.771 | CARM1 140-608/WT (MCF7 CARM1 KO cells; [12]): -1.865 | KO/WT (MCF7 CARM1 KO cells; [13]): -2.771

EPFLSrDPFHSLK
Fold change KO/WT (MCF7 cells; [1]): 2.308 | CARM1 140-608/WT (MCF7 CARM1 KO cells; [2]): 0.7405 | KO/WT (MCF7 CARM1 KO cells; [3]): 1.534

ErYLGGIK
Fold change KO/WT (MCF7 cells; [9]): 0.4212 | CARM1 140-608/WT (MCF7 CARM1 KO cells; [10]): 0.1385 | KO/WT (MCF7 CARM1 KO cells; [10]): 0.4212

FDGSPGQMGGGGPLrFEGPQGQLGGGCPLrFEGPPGPVGTPLrFEGPIGQAGGGGFR
Fold change KO/WT (MCF7 cells; [6]): -4.068 | CARM1 140-608/WT (MCF7 CARM1 KO cells; [12]): 0.07812 | KO/WT (MCF7 CARM1 KO cells; [13]): -4.068

FEGQHNQLGGNLrFEGPHGQPGVGIrFEGPLVQQGGGMrFEGPSVPGGGLR
Fold change KO/WT (MCF7 cells; [6]): -1.477 | CARM1 140-608/WT (MCF7 CARM1 KO cells; [12]): 0.6048 | KO/WT (MCF7 CARM1 KO cells; [13]): -1.668

AGIGVYWGPGHPLNVGIrLPGR
Fold change KO/WT (MCF7 cells; [1]): -0.8432 | CARM1 140-608/WT (MCF7 CARM1 KO cells; [2]): -0.6349 | KO/WT (MCF7 CARM1 KO cells; [3]): -0.8432

SAPFFIPTIPGLVPrYAAPEQNNDPQQSK
Fold change KO/WT (MCF7 cells; [15]): -5.228 | CARM1 140-608/WT (MCF7 CARM1 KO cells; [16]): -3.554 | KO/WT (MCF7 CARM1 KO cells; [17]): -5.228

MGTPVPrPPQDMGQIGVRTPLGPrVAAPVGPVGPTPTVLPMGAPVPrPR
Fold change KO/WT (MCF7 cells; [1]): -2.512 | CARM1 140-608/WT (MCF7 CARM1 KO cells; [2]): -3.81 | KO/WT (MCF7 CARM1 KO cells; [3]): -4.903

SVVESSAPGANNLQVNALVArLPLLLPrAPR
Fold change KO/WT (MCF7 cells; [1]): -2.886 | CARM1 140-608/WT (MCF7 CARM1 KO cells; [2]): -1.353 | KO/WT (MCF7 CARM1 KO cells; [3]): -2.886

VFrYSTSLEK
Fold change KO/WT (MCF7 cells; [1]): 0.0856 | CARM1 140-608/WT (MCF7 CARM1 KO cells; [2]): 0.01169 | KO/WT (MCF7 CARM1 KO cells; [3]): 0.0856

Source: publication PMC5458078, “Global mapping of CARM1 substrates defines enzyme specificity and substrate recognition” (Nature Communications, 2017)
